Experimental data: ChEMBL document CHEMBL1140022, “Adenosine phosphonate inhibitors of lipid II: alanyl tRNA ligase MurM from Streptococcus pneumoniae” (Bioorg Med Chem Lett, 2007)
The source made the active and inactive calls. The calls are words filed in the database; no cut-off is given here.

How the values were obtained:
Streptococcus pneumoniae [1] = experiment: Antibacterial activity against penicillin-resistant Streptococcus pneumoniae 159 at 1 mM; assay type: functional, organism-based
[2] = Inhibition of Streptococcus pneumoniae 159 MurM
Streptococcus pneumoniae [3] = experiment: Inhibition of Streptococcus pneumoniae 159 MurM at 1 mM

| Activity (Streptococcus pneumoniae [3]) | SMILES | Activity (Streptococcus pneumoniae [1]) | IC50 [2] |
| --- | --- | --- | --- |
| – | CC(N)P(=O)(O)O[C@H]1C[C@H](n2cnc3c(N)ncnc32)O[C@@H]1CO (some centres undefined) | inactive | 100 µM |
| – | CC(N)P(=O)(O)O[C@@H]1[C@H](O)[C@@H](CO)O[C@H]1n1cnc2c(N)ncnc21 (some centres undefined) | – | 780 µM |
| inactive | COc1ccc(CC(N)C(=O)N[C@H]2[C@@H](O)[C@H](n3cnc4c(N(C)C)ncnc43)O[C@@H]2CO)cc1 (single isomer, unassigned) | – | – |
